# Test results taken from US20110070552A1, “USE OF SECONDARY OPTICAL EMISSION AS A NOVEL BIOFILM TARGETING TECHNOLOGY” (NOMIR MEDICAL TECHNOLOGIES INC, priority 2003, published 2011).
# How the values were obtained:
# Type in all cases: in vivo, human
# [1] = test system: biofilm in periodontal pocket; test: Treatment of a recalcitrant 10 mm periodontal pocket: chromophore staining plus 830 nm diode laser hot tip; conditions: one patient; for periodontal pocket probing depth: baseline 10 mm pocket, 0.1% MB solution, laser 1000 mW
# Source text: (§1) The laser used to exemplify the invention was a 830 nm diode laser with a power output of between 800 mW-1200 mW in the Continuous Wave mode of operation, through a 600 micron silica laser delivery fiber. The live human patients (in vivo) all presented with some advanced state of periodontal or periimplant disease and/or active infection. Presented below are data for two representative patients.
# Presented as a healthy […] with a recalcitrant 10 mm periodontal pocket on the facial aspect of the maxillary canine (tooth #6) after a regular dental cleaning and scaling. In a minimally invasive procedure, the patient was anesthetized with xylocaine, and the periodontal pocket was infused with 0.1% MB solution via a small bristled brush that easily fits into the volume of the pocket. The MB solution was left for approximately 2 minutes in the area, and then surface irrigation of H2O was applied.
# A […] silica fiber connected to a 830 nm dental diode laser (sold by Lumenis Technologies, Yokneam, Israel) was then activated at 1000 mW and the fiber was placed into the periodontal pocket, where it immediately came in contact with biofilm, tissue, and blood products. The tip of the fiber immediately carbonized, and became incandescent. The fiber (with the secondary quantum emissions emanating from the carbonized tip), was then moved around the three dimensional area of the periodontal pocket for a period of 30 to 45 seconds in rapid movements, never staying in one direct area for more than 1 second at a time. The area was then scaled with traditional gracey periodontal scalers (sold by Hu-Friedy Chicago, Ill.), and then irrigated with copious water. The patient was sent home with administration of 600 mg of Ibuprophen (sold by Wyeth, Madison, N.J.) analgesic given chair-side, and no antibiotics.
# [2] = test system: biofilm and infection around titanium implant; test: Treatment of infected periimplant tissue: chromophore staining plus 830 nm diode laser hot tip
# Source text: as §1
# Presented as a brittle diabetic with an infected titanium implant and a fistula draining the infection. Radiographic appearance detailed 8 mm of lost bone, and generalized radiolucency around the medial half of the implant. […] The area was surgically opened with a conventional trapezoidal shaped flap, and the infection and biofilm effected area was bathed in a 0.1% MB solution (sold by Vista Dental Products, Racine, Wis.) for approximately 2 minutes. The area was then irrigated with copious H2O, leaving the targeted biofilm behind, and washing away excess stain. A […] silica fiber connected to an 830 nm dental diode laser was then activated at 1200 mW and the fiber was placed in contact with biofilm and blood products and immediately carbonized. […]
# [3] = test system: periodontal and periimplant pockets and infections; test: Procedure performed on 50 patients in periodontal and periimplant pockets and infections; conditions: 50 patients in the last 24 months, 830 nm diode laser 800 mW-1200 mW CW, 600 micron fiber
# Source text: as §1
SMILES,"state of the periodontal pocket ([1]; 0.1% MB solution approx. 2 minutes, laser 1000 mW 30 to 45 seconds, then scaling, eight days post-op)",periodontal pocket probing depth ([1]; at four months) [mm],periodontal pocket probing depth ([1]; at six weeks) [mm],"infection status of periimplant area ([2]; one diabetic patient, 0.1% MB solution approx. 2 minutes, laser 1200 mW 60 to 90 seconds, scaling, 5 day Amoxicillin, three weeks post-op)","infection status of periimplant area ([2]; same patient, at 9 months)",clinical outcome [3]
CN(C)c1ccc2nc3ccc(=[N+](C)C)cc-3sc2c1 [Methylene Blue],completely closed,3,3,completely free of infection,still infection free,successful outcomes
Cc1cc2nc3ccc(N(C)C)cc3[s+]c2cc1N.[Cl-] [Toludine Blue],,,,,,successful outcomes
